Data as given in patent US9908899B2 (BIOMARIN PHARMACEUTICAL INC., priority 2011, dated 2018).
Like-named read-outs stand apart in the source and are kept apart here.

Columns and labels:
HDAC1 = HDAC1 (Homo sapiens (Human), UniProt Q13547); assay: HDAC activity inhibition assay, HDAC1; assay type: biochemical; settings: Table 1; 2 hours pre-incubation
Method: (§1) The HDAC activity inhibition assay was performed as follows to determine the ability of a test compound to inhibit HDAC enzymatic activity. […] Following pre-incubation, Fluor-de-Lys™ substrate (Enzo Life Sciences, Plymouth Meeting, Pa., BML-KI104-0050) was added to a final concentration of 10 μM and plates were further incubated for 30 minutes at room temperature. […] IC50 values were calculated by using a sigmoidal dose-response (variable slope) equation in GraphPad Prism® 5 for Windows (GraphPad Software, La Jolla, Calif.).

HDAC2 = HDAC2 (Homo sapiens (Human), UniProt Q92769); assay: HDAC activity inhibition assay, HDAC2; assay type: biochemical
Method: as §1

HDAC3/NcoR2 = HDAC3/NcoR2 (Homo sapiens (Human), UniProt O15379); assay: HDAC activity inhibition assay, HDAC3/NcoR2; assay type: biochemical
Method: as §1

[1] = Acid stability determination; assay type: physicochemical; settings: 100 μM in 0.01 M HCl, 50° C.
Method: A 100 μM solution of test compound was prepared by dilution of a 10 mM DMSO stock solution in a 0.01 M solution of HCl in deionized water. Immediately after mixing, an aliquot (100 μL) was sampled and analyzed by HPLC/UV. The area under the compound peak was determined and used as the time zero reference point. The remainder of the acid sample was incubated at 50° C. and samples were taken after 2, 4, and 24 hours of incubation. On a few occasions, samples were taken at 30 rather than 24 hours. These were analyzed by the same HPLC/UV method and the area of the peak corresponding to the test compound was measured. Percent remaining at a given time point was then calculated as the ratio of the area under the peak after incubation to that at time zero times 100. In those cases where a 30 hour time point was recorded, the percent remaining at 24 hours was obtained by interpolation of the percent remaining versus time curve assuming a unimolecular process, i.e. a monoexponential decay. Percent remaining after 24 hours incubation are presented in Tables 2 and 4 below, where A corresponds to more than 60%, B is between 40 and 60%, C covers 20 to 40% and D means less than 20%.

Frataxin (FXN) mRNA = assay: Effect of HDAC inhibitors on frataxin (FXN) mRNA expression in Friedreich's ataxia patient primary lymphocytes; assay type: cell-based, human; settings: Homo sapiens, Lymphocyte; Friedreich's ataxia patient primary lymphocytes, 48 hours; read-out: FXN 2x (concentration required for a 2-fold increase in FXN mRNA)
Method: Blood is collected from Friedreich's ataxia patient donors into tubes containing the anti-coagulant EDTA. Primary lymphocytes are isolated using Lymphocyte Separation Medium (MP Biomedicals, Solon, Ohio) following the manufacturer's instructions and including a few modifications made by Repligen. After a final wash in Phosphate Buffered Saline (PBS), the cells are distributed into a 6-well cell culture plate in cell growth medium. The test HDAC inhibitor compound is added to cells in a dose escalating manner (usually concentrations range from 1 to 10 μM) and 0.1% DMSO is added to one well of cells as a no treatment control. Cells are incubated for 48 hours at 37° C. in a CO2 incubator; cell counts are taken using a Countess automated cell counter (Invitrogen, Carlsbad, Calif.). Equivalent numbers of cells for all treatment conditions are pelleted by centrifugation and resuspended in cell lysis buffer. Total RNA is isolated from approximately 1×10^6 primary lymphocytes using a RNeasy Mini Kit (Qiagen, Valencia, Calif.), following the manufacturer's instructions and including an optional on-column DNAse digestion step. The isolation is performed either manually or using the QIAcube (Qiagen, Valencia, Calif.), an instrument that automates much of the isolation procedure. The RNA yield and concentration is determined using a Nanodrop spectrophotometer (Thermo Fisher Scientific, Waltham, Mass.) and depending on the RNA concentration, one of two protocols is used to measure frataxin (FXN) transcript levels. For samples containing at least 15 ng/μL RNA a TaqMan® Probe-based (Applied Biosystems, Carlsbad, Calif.) qRT-PCR method is used, while for samples containing less than 15 ng/μL RNA a SYBR Green qRT-PCR method is used. In the TaqMan® Probe-based method specific primer/probe pairs for FXN and GAPDH are multiplexed in each reaction. In the SYBR Green method FXN and GAPDH are amplified in separate reactions. In both methods each RNA sample is analyzed in triplicate (preferably) or duplicate (minimally) using a one-step qRT-PCR master mix that contains all the components necessary for cDNA synthesis and PCR amplification in a single, continuous reaction. After cycling is complete, MxPro Software (Agilent Technologies, Santa Clara, Calif.) is used to analyze the collected data and determine the relative amount of FXN mRNA compared to a control sample. An adaptive baseline method is used for baseline correction whereby an algorithm automatically selects the appropriate baseline cycles for each well and each dye. An amplification-based threshold is set and the corresponding threshold cycle, or Ct, is obtained for calculating target concentration. The Ct values for each target gene (FXN and GAPDH) for each replicate series are averaged. The amount of FXN (or GAPDH) in the sample is determined as the relative quantity to the calibrator where the calibrator sample is assigned an arbitrary quantity of 1. The following equation is used: Relative quantity to the calibrator=2^−ΔCt where ΔCt=(Ct_gene)unknown−(Ct_gene)calibrator, gene is either FXN or GAPDH, calibrator is a DMSO control sample, and unknown is a HDACi treated sample. The relative quantity of FXN is normalized to cell number and RNA input. Data is reported in Tables 2 and 4 below, where the concentration required for a 2-fold increase in FXN mRNA is reported as A if less than 5 μM, B if between 5 and 10 μM, C if greater than 10 μM.

[2] = Table 1, 2 hours pre-incubation

Chain of HDAC2 (Q92769 whole entry): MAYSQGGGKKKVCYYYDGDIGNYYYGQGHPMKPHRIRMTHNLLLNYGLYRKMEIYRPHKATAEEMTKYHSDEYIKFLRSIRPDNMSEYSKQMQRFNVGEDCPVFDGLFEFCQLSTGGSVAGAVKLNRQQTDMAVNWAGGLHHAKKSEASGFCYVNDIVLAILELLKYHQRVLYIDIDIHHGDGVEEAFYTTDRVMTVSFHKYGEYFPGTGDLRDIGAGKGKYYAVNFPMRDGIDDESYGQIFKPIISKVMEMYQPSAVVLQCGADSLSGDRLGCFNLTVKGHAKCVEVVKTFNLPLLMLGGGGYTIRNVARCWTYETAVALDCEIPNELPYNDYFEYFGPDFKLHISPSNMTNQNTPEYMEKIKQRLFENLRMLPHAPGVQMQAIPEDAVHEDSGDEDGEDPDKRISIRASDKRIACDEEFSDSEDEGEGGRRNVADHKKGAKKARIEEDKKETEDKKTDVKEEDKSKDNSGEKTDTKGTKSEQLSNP
Chain of HDAC3/NcoR2 (O15379 whole entry): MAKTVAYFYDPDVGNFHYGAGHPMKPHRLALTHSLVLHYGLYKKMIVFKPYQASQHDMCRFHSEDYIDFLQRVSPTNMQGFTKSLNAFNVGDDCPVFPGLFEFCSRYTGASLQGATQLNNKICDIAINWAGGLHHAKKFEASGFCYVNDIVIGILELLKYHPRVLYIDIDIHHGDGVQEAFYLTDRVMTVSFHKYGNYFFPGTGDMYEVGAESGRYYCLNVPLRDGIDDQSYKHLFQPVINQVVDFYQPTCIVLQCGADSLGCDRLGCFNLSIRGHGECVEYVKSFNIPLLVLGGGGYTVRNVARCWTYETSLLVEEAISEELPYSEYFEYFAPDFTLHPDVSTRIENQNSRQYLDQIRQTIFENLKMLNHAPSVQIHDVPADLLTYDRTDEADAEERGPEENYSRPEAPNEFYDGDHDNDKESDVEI
Chain of HDAC3/NcoR2 (Q9Y618 395-489 partner): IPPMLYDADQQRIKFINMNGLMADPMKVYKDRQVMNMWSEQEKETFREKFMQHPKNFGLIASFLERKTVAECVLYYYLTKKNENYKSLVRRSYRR
Chain of HDAC1 (Q13547 whole entry): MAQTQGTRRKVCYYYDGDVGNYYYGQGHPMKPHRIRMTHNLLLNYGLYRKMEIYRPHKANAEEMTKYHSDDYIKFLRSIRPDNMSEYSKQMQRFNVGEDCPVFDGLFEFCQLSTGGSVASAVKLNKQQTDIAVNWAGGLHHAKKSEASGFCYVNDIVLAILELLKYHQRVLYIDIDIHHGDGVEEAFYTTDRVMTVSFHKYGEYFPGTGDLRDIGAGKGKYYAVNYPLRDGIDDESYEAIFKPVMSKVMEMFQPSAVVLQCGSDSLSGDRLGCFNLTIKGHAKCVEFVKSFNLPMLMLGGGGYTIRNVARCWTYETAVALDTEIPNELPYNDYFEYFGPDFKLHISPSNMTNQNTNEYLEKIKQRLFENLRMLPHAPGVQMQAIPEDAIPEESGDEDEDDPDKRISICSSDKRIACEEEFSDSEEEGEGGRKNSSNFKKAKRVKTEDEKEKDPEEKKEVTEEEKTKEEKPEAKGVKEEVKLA

IC50 (HDAC1)	IC50 (HDAC2; [2])	IC50 (HDAC3/NcoR2; [2])	acid stability (percent remaining after 24 hours incubation) [1]	SMILES	IC50 (HDAC2)	IC50 (HDAC3/NcoR2)	EC (2-fold FXN mRNA) (Frataxin (FXN) mRNA)
1000 to 5000 nM	1000 to 5000 nM	< 1000 nM		CCn1cc(/C=C/C(=O)Nc2ccccc2N)cn1 [C1]			
< 1000 nM	1000 to 5000 nM	< 1000 nM		Nc1ccccc1NC(=O)/C=C/c1cnn(Cc2ccc(F)cc2)c1 [D5]			
1000 to 5000 nM	1000 to 5000 nM			Cc1cccc(Cn2cc(/C=C/C(=O)Nc3ccccc3N)cn2)n1 [D6]			> 10 µM
< 1000 nM	< 1000 nM	< 1000 nM		Nc1ccccc1NC(=O)/C=C/c1cnn(CCCc2ccccc2)c1 [D8]			> 10 µM
< 1000 nM	1000 to 5000 nM	< 1000 nM		Nc1ccccc1NC(=O)/C=C/c1cnn(CC(F)(F)c2ccccc2)c1 [D10]			> 10 µM
< 1000 nM	< 1000 nM	< 1000 nM		Nc1ccccc1NC(=O)/C=C/c1cnn(CC/C=C/c2ccccc2)c1 [D11]			5 to 10 µM
			A (A corresponds to more than 60%)	CN(CCCn1cc(/C=C/C(=O)Nc2ccccc2N)cn1)c1ccccc1 [D12]			
< 1000 nM	< 1000 nM	< 1000 nM		Nc1ccccc1NC(=O)/C=C/c1cnn(CCc2c[nH]c3ccccc23)c1 [D13]			
< 1000 nM	< 1000 nM	< 1000 nM		Nc1ccccc1NC(=O)/C=C/c1cnn(CCCOc2ccccc2)c1 [D15]			
1000 to 5000 nM	1000 to 5000 nM	< 1000 nM		Nc1cc(F)ccc1NC(=O)/C=C/c1cnn(CCOc2ccccc2)c1 [D16]			
1000 to 5000 nM	5000 to 10000 nM	< 1000 nM		CCOCc1cn2cc(/C=C/C(=O)Nc3ccccc3N)sc2n1 [E1, (E)-N-(2-aminophenyl)-3-(6-(ethoxymethyl)imidazo[2,1-b]thiazol-2-yl)acrylamide]			
< 1000 nM	1000 to 5000 nM	< 1000 nM	A (A corresponds to more than 60%)	Nc1ccccc1NC(=O)/C=C/c1csc(C/C=C/c2ccccc2)n1 [E2, (E)-N-(2-aminophenyl)-3-(2-cinnamylthiazol-4-yl)acrylamide]			
< 1000 nM	1000 to 5000 nM	< 1000 nM	B (B is between 40 and 60%)	Nc1ccccc1NC(=O)c1ccc(C=C2CCN(C(=O)OCc3ccccc3)CC2)cc1 [F1]			
< 1000 nM		< 1000 nM	B (B is between 40 and 60%)	Nc1ccccc1NC(=O)c1ccc(CC2CN(Cc3ccc4cc[nH]c4c3)C2)cc1 [F4]			< 5 µM
< 1000 nM	1000 to 5000 nM	< 1000 nM		Nc1ccccc1NC(=O)c1ccc(C=C2CN(Cc3ccc4cc[nH]c4c3)C2)c(Cl)c1 [F5, 4-((1-((1H-indol-6-yl)methyl)azetidin-3-ylidene)methyl)-N-(2-aminophenyl)-3-chlorobenzamide]			
	1000 to 5000 nM			Nc1ccccc1NC(=O)c1ccc(C=C2CN(Cc3cccnc3)C2)c(Cl)c1 [F6]			

Continued, compound first:

SMILES	IC50 (HDAC1)	IC50 (HDAC2; [2])	IC50 (HDAC3/NcoR2; [2])	acid stability (percent remaining after 24 hours incubation) [1]	IC50 (HDAC2)	IC50 (HDAC3/NcoR2)	EC (2-fold FXN mRNA) (Frataxin (FXN) mRNA)
Cc1nc(/C=C/C(=O)Nc2ccccc2N)cs1 [A1]	1000 to 5000 nM	5000 to 10000 nM	< 1000 nM				
Cn1cc(/C=C/C(=O)Nc2ccccc2N)cn1 [A2]	5000 to 10000 nM	10000 to 20000 nM	< 1000 nM	B (B is between 40 and 60%)			
Cc1ncc(/C=C/C(=O)Nc2ccccc2N)s1 [A3]	5000 to 10000 nM	5000 to 10000 nM	< 1000 nM				
Cc1nc(/C=C/C(=O)Nc2ccccc2N)co1 [A4]	> 20000 nM	> 20000 nM	1000 to 5000 nM				
Cc1cc(/C=C/C(=O)Nc2ccccc2N)on1 [A5]	10000 to 20000 nM	10000 to 20000 nM	< 1000 nM	B (B is between 40 and 60%)			
Nc1ccccc1NC(=O)/C=C/c1cnc2ccccn12 [A6, (E)-N-(2-aminophenyl)-3-(imidazo[1,2-a]pyridin-3-yl)acrylamide]	5000 to 10000 nM	5000 to 10000 nM	< 1000 nM				
Cn1ccc(/C=C/C(=O)Nc2ccccc2N)n1 [A7]	1000 to 5000 nM	1000 to 5000 nM	< 1000 nM				
Nc1ccccc1NC(=O)/C=C/c1cc2ccccn2n1 [A8]	< 1000 nM	1000 to 5000 nM	< 1000 nM	B (B is between 40 and 60%)			
Nc1ccccc1NC(=O)/C=C/c1cn2ccccc2n1 [A9]	1000 to 5000 nM	1000 to 5000 nM	< 1000 nM				
Nc1ccccc1NC(=O)/C=C/c1cn2ccnc2s1 [A10]	1000 to 5000 nM	1000 to 5000 nM	< 1000 nM				
Nc1ccccc1NC(=O)/C=C/c1cnn(-c2ccccc2)c1 [A11]	1000 to 5000 nM	1000 to 5000 nM	< 1000 nM	A (A corresponds to more than 60%)			
Cn1cnc(/C=C/C(=O)Nc2ccccc2N)c1 [A12]	1000 to 5000 nM	5000 to 10000 nM	< 1000 nM				
Nc1ccccc1NC(=O)/C=C/c1cnn(CC2CC2)c1 [B1]	1000 to 5000 nM	5000 to 10000 nM	< 1000 nM				
Nc1ccccc1NC(=O)/C=C/c1cnn(C/C=C/c2ccc(F)cc2)c1 [B2]	< 1000 nM	1000 to 5000 nM	< 1000 nM				
Nc1ccccc1NC(=O)/C=C/c1cnn(CCOc2cc(F)cc(F)c2)c1 [B3, (E)-N-(2-aminophenyl)-3-(1-(2-(3,5-difluorophenoxy)ethyl)-1H-pyrazol-4-yl)acrylamide]	< 1000 nM	< 1000 nM	< 1000 nM				
Nc1ccccc1NC(=O)/C=C/c1cnn(CCOc2ccc(C(F)(F)F)cc2)c1 [B4]	< 1000 nM	1000 to 5000 nM	< 1000 nM				
Nc1ccccc1NC(=O)/C=C/c1cnn(CCOc2cc(F)cc(Cl)c2)c1 [B5, (E)-N-(2-aminophenyl)-3-(1-(2-(3-chloro-5-fluorophenoxy)ethyl)-1H-pyrazol-4-yl)acrylamide]	< 1000 nM	< 1000 nM	< 1000 nM				
Nc1ccccc1NC(=O)/C=C/c1cnn(CCOc2ccc(F)cc2)c1 [B6]	< 1000 nM	< 1000 nM	< 1000 nM				
Cn1cc(/C=C/C(=O)Nc2ccc(F)cc2N)cn1 [C2]					> 20000 nM	1000 to 5000 nM	
